# Assay results from patent US7415306B2, “Transdermal delivery system for anti-emetic medication” (TransPharma Medical Ltd., priority 2002, dated 2008).
# Counter-ions that a name gives are not always drawn.
# How the values were obtained:
# [1] = Clinical bioavailability study with granisetron patches and ViaDerm versus oral delivery (plasma levels, irritation); settings: human, 1 tablet of 1 mg twice daily, reached only for short time periods, unsteady profile
# Protocol: Granisetron HCl patches were applied on the skin of the upper arm and fore arm of healthy adult volunteers. […] Irritation was examined by monitoring edema and erythema as described in Example 6.
# The experiment was conducted with six subjects, in a crossover manner. Each subject received four different treatments, i.e. various administration methods at various sites of patch application, with at least six days washout period between treatments.
# ViaDerm performance was assessed by a study conducted with twenty healthy, adult volunteers, 10 males and 10 females. […] Each subject received 10 treatments, in a randomized manner such that a given treatment was applied to different subjects and/or in each subject at different sites. • Treatment protocol. The treatment sites were the inner arm and hand. […] Measuring Transdermal Water Loss (TEWL) at a skin site treated with ViaDerm in comparison to an adjacent untreated skin assessed formation of micro-channels. […]
# [2] = Clinical patch-size study with granisetron patches and ViaDerm (plasma levels, erythema/edema)
# Excerpt: The purpose of the first phase study was to determine patch size per drug dose. The target population for the study was healthy male and female volunteers who signed informed consent and fulfilled the following inclusion criteria: • 1. Are capable of understanding and signing an informed consent • 2. Are between the ages of 18 and 60 years • 3. Are medically stable • 4. Have fair skin color that enable to observe erythema and/or edema. • 5. Have two hands with no obvious marks, bruises, cuts, and abrasions on the back of the hand. • 6. Hemoglobin more than 12 gm % in females and more than 14 gm % in males.
# Granisetron HCl patches were applied on the skin of the upper arm and fore arm of healthy adult volunteers. […] Irritation was examined by monitoring edema and erythema as described in Example 6. […]
# ViaDerm performance was assessed by a study conducted with twenty healthy, adult volunteers, 10 males and 10 females. […] Measuring Transdermal Water Loss (TEWL) at a skin site treated with ViaDerm in comparison to an adjacent untreated skin assessed formation of micro-channels. Safety of ViaDerm was evaluated by measuring irritation (erythema and edema) at the treatment site using a scale of zero to eight in accordance with Draize irritation index (Table 4). The response to irritation induced by ViaDern was assessed by a Cumulative Irritation Index (Table 5). […]
# [3] = Pharmacokinetic study of transdermal drug delivery in rats (granisetron hydrogel patch with or without ViaDerm); type: in vivo, Male Sprague-Dawley rats; settings: 3% granisetron HCl hydrogel patch
# Protocol: Male Sprague-Dawley rats (400-500 g, Harlan Laboratories Ltd., Jerusalem, Israel) were anesthetized (5 mg/kg ketamine i.p.) and were placed dorsally. Anesthesia was maintained until the end of the transdermal treatment and during blood sampling by injections of 0.1 ml ketamine and Xyalzine (60-80 mg/ml) every 30-40 min. The abdominal skin was shaved and cleaned with isopropyl alcohol. After 30 minutes, the transepidermal water loss was measured in order to verify skin integrity and RF-micro-channeling took place on the abdominal skin of a test group. […] A granisetron patch, made of a solution of 3% granisetron HCl soaked in a hydrogel sheet of 1.4 cm , was then attached to the skin surface for 24 hr in special containers glued to the skin by silicon medical glue. Blood samples were taken from the heart into heparinized tubes. After centrifugation, plasma samples were kept at −20° C. until analyzed for drug levels by HPLC.
# The procedure was basically performed according to Kudoh et al, J. Chromatography 660(1994) p. 205. Phosphate buffer (500 μl, pH 7, 67 mM) was mixed with one ml plasma. […] Aliquots (30 μl) from each sample were injected into the HPLC (1050 HP), equipped with a pre-packed C8 column (BDS-Hypersil, UK; C-8 100×3.0 mm, 3 μm), an auto-sampler, and a fluorescence detector (Model 1046A). Granisetron was detected by excitation at 305 nm and emission at 365 nm. […]
structure (smiles),measurement,setting,value
"CN1C2CCCC1CC(NC(=O)c1nn(C)c3ccccc13)C2 (centres unmarked) [granisetron, granisetron hydrochloride]",plasma levels of granisetron,[1],above 4 ng/ml
same,maximal concentration of granisetron in human plasma versus patch size,"[2]; ViaDerm + patches of 2.8, 5.6 and 8.4 cm^2",linearly correlated with the size of patch
same,maximal plasma concentration,"[2]; human, ViaDerm + granisetron patch (3% drug) covering 5.6 cm^2, applied 24 hours",above 4 ng/ml
same,granisetron plasma level (peak),"[3]; rats not treated with ViaDerm, peak at 2.5 hours after application",lower than 50 ng/ml
same,granisetron plasma level,"[3]; rats pretreated with ViaDerm, reached during first 12 hours, maintained for additional 12 hours",above 200 ng/ml
